{"source": "paper PMC4389443", "about": "(Respiratory Research, 2015)", "key": {"[1]": {"biological_target": "T1, VAP-1/SSAO in gonadal fat tissue homogenate (Oryctolagus cuniculus, UniProt A0A5F9CS97)", "T1 sequence (A0A5F9CS97 1-763)": "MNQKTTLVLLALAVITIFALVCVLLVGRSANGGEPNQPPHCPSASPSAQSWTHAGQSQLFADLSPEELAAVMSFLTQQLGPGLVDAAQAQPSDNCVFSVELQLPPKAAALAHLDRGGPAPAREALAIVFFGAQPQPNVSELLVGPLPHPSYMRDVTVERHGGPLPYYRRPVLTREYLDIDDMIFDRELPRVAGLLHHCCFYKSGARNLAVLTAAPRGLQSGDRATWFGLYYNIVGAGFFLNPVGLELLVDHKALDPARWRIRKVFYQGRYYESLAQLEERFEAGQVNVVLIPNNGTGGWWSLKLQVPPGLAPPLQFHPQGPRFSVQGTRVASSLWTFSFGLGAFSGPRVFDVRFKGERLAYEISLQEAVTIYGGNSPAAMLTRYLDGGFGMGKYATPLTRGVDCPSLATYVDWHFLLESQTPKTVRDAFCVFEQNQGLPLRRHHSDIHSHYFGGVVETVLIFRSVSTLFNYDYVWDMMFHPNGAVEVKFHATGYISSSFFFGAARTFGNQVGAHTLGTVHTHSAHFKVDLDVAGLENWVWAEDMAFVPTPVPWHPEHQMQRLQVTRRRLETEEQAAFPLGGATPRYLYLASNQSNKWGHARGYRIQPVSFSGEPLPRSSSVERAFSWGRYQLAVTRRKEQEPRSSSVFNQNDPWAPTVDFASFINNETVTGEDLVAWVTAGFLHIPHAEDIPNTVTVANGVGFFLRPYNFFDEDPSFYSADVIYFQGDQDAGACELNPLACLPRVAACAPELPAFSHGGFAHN", "assay": "SSAO activity, gonadal fat tissue homogenate", "format": "biochemical", "conditions": "rabbit"}, "[2]": {"biological_target": "T2, Recombinant retina specific amine oxidase (AOC2) (Homo sapiens, UniProt O75106)", "T2 sequence (O75106 1-756)": "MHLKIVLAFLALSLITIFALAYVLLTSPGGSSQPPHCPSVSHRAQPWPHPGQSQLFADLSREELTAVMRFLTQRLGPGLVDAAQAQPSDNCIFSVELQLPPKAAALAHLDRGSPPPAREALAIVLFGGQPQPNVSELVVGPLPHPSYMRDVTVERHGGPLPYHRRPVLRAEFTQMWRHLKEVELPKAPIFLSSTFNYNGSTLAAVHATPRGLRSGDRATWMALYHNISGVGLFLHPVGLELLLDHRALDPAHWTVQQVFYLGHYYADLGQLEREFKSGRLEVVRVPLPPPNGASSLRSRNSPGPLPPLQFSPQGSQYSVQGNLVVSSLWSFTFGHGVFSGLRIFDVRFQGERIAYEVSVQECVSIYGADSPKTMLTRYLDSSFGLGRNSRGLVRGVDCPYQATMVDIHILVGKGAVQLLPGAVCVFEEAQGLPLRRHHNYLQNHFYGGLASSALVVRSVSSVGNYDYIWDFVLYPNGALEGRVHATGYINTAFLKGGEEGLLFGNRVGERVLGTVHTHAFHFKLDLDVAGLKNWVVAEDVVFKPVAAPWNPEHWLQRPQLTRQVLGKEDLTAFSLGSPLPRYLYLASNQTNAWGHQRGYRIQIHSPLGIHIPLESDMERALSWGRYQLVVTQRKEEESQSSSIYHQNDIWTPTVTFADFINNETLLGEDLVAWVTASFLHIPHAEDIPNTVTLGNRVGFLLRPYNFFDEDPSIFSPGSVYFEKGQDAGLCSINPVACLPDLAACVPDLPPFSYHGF", "assay": "AOC2 enzyme activity assay", "format": "biochemical"}, "[3]": {"biological_target": "T3, Recombinant lysyl oxidase like 2 (Homo sapiens, UniProt Q9Y4K0)", "T3 construct": "purchased R&D systems", "T3 sequence (Q9Y4K0 26-774)": "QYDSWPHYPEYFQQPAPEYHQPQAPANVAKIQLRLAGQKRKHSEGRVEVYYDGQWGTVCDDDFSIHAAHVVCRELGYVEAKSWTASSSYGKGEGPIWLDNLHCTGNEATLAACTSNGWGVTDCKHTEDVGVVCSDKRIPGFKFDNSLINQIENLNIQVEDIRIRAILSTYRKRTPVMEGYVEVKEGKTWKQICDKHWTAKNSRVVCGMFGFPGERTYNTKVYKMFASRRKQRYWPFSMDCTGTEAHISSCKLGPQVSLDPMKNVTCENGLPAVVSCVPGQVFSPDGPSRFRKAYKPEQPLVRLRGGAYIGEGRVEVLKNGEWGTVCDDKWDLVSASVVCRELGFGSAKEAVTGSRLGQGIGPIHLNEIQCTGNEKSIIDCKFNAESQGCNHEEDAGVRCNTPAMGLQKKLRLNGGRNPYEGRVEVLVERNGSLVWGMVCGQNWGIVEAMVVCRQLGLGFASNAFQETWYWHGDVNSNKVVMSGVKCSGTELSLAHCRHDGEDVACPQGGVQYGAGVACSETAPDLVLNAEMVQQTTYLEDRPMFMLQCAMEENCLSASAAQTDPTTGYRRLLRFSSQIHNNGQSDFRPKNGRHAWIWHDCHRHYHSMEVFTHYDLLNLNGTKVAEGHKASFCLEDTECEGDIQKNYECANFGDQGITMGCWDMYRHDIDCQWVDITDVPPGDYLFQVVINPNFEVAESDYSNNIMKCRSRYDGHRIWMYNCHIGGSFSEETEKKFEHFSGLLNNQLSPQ", "assay": "LOXL2 fluorometric enzyme activity assay", "format": "biochemical", "experimental": "rhLOXL2 (lysyl oxidase like 2) was purchased from R&D systems and assay was performed in 1.2 M urea, 50 mM sodium borate buffer, pH 8.2. The substrate used was 10 mM putrescine and 100 μM of β-aminopropionitrile (βAPN, Sigma-Aldrich) was added to the low controls."}, "[4]": {"assay": "Plasma stability", "format": "in vitro ADME", "conditions": "dog plasma, 1 hour incubation"}, "[5]": {"assay": "Water solubility", "format": "physicochemical"}, "[6]": {"test_system": "HepG2 cells", "assay": "Phospholipidosis in HepG2 cells", "format": "cell-based", "conditions": "highest concentration tested 100 μM"}, "[7]": {"test_system": "C57/BL6 mice", "assay": "Cecal ligation and puncture (CLP) induced sepsis"}, "[8]": {"conditions": "6 hours, 6 mg.kg^−1 oral 1 hour prior to surgery"}, "[9]": {"conditions": "6 hours, PXS-4728A 6 mg.kg^−1, dexamethasone 5 mg.kg^−1, oral 1 hour prior to surgery"}}, "note": "Like-named read-outs stand apart in the source and are kept apart here."}
{"smiles": "CC(C)(C)NC(=O)c1ccc(OC/C(=C/F)CN)cc1", "note": "[PXS-4728A]", "values": [{"measurement": "IC50", "setting": "[1]", "result": "< 10", "unit": "nM"}, {"measurement": "IC50", "setting": "[2]", "result": 2760, "unit": "nM"}, {"measurement": "IC50", "setting": "[3]", "result": 10400, "unit": "nM"}, {"measurement": "Plasma stability, remaining", "setting": "[4]", "result": "> 90", "unit": "%"}, {"measurement": "solubility", "setting": "[5]; Figure 1, read-out: Solubility (H2O)", "result": "> 10000", "unit": "µg/mL"}, {"measurement": "solubility", "setting": "[5]; pH 7.4, aqueous buffer, read-out: Water solubility", "result": "> 10000", "unit": "µg/mL"}, {"measurement": "Phospholipidosis", "setting": "[6]", "result": "does not induce"}, {"measurement": "Myeloperoxidase in the lung", "setting": "[7]; [8]", "result": "reduction"}, {"measurement": "Neutrophils in bronchoalveolar lavage", "setting": "[7]; [8]", "result": "reduction"}, {"measurement": "Total cells in bronchoalveolar lavage", "setting": "[7]; [8]", "result": "reduction"}, {"measurement": "Peritoneal neutrophils", "setting": "[7]; [9]", "result": "not affected"}, {"measurement": "Total peritoneal inflammatory cells", "setting": "[7]; [9]", "result": "not affected"}, {"measurement": "Survival rate", "setting": "[7]; treated 1 hour prior and daily thereafter, control animals 50%, p = 0.057", "result": 90, "unit": "%"}]}
